Assay results from the supplement of paper PMC11208160.
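Also: IS621 recombinase and bridge RNA in Escherichia coli cells.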

Test: recombinant barcode read abundance after kanamycin selection (control-corrected) (log10(CPM+1)); higher = more efficient recombination; sequences stand for … in AGTGCAGAGAAAATCGGCCAGTTTTCTCTGCCTGCAGTCCGCATGCCGT…AGATTTATGCAGCGGACTGCCTTTCTCCCAAAGTGATAAACCGGACAGTATCATGGACCGGTTTTCCCGGTAATCCGTATTTGCAAGGTTGGTTTCACT; site = the 11-nt target
In short: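 Recombination efficiency comes from barcode counts at recombinant junctions, converted to counts per million, averaged and corrected against the control. Values appear as log10(CPM+1). They were obtained from a pooled E. coli screen in which each oligo paired a target with an IS621 bridge RNA target-binding loop, and cells were plated in duplicate on chloramphenicol/ampicillin LB agar or on chloramphenicol/ampicillin/kanamycin with 0.1 mM IPTG.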
With “ATGCGAGCTTGGGTTCTAACCTGTTGCCG (site ATGCGAGCTCC)” the “recombinant barcode read abundance (log10)” value was 0.358.
For “ATGCGAGCTTGGGTTCTAACCTGTTGCCG (site ATGCGAGCTCG)”, the “recombinant barcode read abundance (log10)” value was 0.815.
For “ATGCGAGCTTGGGTTCTAACCTGTTGCCG (site ATGCGAGCTCT)”, the “recombinant barcode read abundance (log10)” value was 0.404.
With “ATGCGCCCTTGGGTTCTAACCTGTTGCCT (site ATGCACCCTAG)” the “recombinant barcode read abundance (log10)” value was 0.43.
For “ATGCGCCCTTGGGTTCTAACCTGTTGCCT (site ATGCGCCCTAG)”, the “recombinant barcode read abundance (log10)” value was 0.717.
In the case of “ATGCTACCTTGGGTTCTAACCTGTTGCGG (site ATGCTACCTCC)”, the “recombinant barcode read abundance (log10)” value was 1.2.
In the case of “ATGCTACCTTGGGTTCTAACCTGTTGCGG (site CACGGGGCTAG)”, the “recombinant barcode read abundance (log10)” value was 0.0226.
For “ATGGGAGCTTGGGTTCTAACCTGTTGCGA (site AGGGGAGCTCC)”, the “recombinant barcode read abundance (log10)” value was 0.627.
In the case of “ATGGGAGCTTGGGTTCTAACCTGTTGCGA (site ATGGGAGCTTC)”, the “recombinant barcode read abundance (log10)” value was 1.14.
For “ATGGTGCCTTGGGTTCTAACCTGTTGCCT (site ATGGTGACTAG)”, the “recombinant barcode read abundance (log10)” value was 0.098.
For “ATGGTGCCTTGGGTTCTAACCTGTTGCCT (site ATGGTGCCTAG)”, the “recombinant barcode read abundance (log10)” value was 2.65.
In the case of “ATGGTGCCTTGGGTTCTAACCTGTTGCCT (site ATGGTGGCTAG)”, the “recombinant barcode read abundance (log10)” value was 0.417.
In the case of “ATGGTGCCTTGGGTTCTAACCTGTTGCCT (site ATGGTGTCTAG)”, the “recombinant barcode read abundance (log10)” value was 2.03.
For “ATGTAGGCTTGGGTTCTAACCTGTTGCCT (site ATGTAGGCTAG)”, the “recombinant barcode read abundance (log10)” value was 0.137.
With “ATGTAGGCTTGGGTTCTAACCTGTTGCCT (site ATGTTAGCTAG)” the “recombinant barcode read abundance (log10)” value was 0.127.
For “ATGTATTCTTGGGTTCTAACCTGTTGCCT (site AACTATTCTAG)”, the “recombinant barcode read abundance (log10)” value was 0.0758.
With “ATGTATTCTTGGGTTCTAACCTGTTGCCT (site ATGTATTCTAG)” the “recombinant barcode read abundance (log10)” value was 0.828.
For “ATGTCGTCTTGGGTTCTAACCTGTTGCCT (site AAGTCGTCTAG)”, the “recombinant barcode read abundance (log10)” value was 0.0812.
In the case of “ATGTCGTCTTGGGTTCTAACCTGTTGCCT (site ACGTCGTCTAG)”, the “recombinant barcode read abundance (log10)” value was 0.296.
For “ATGTCGTCTTGGGTTCTAACCTGTTGCCT (site AGGTCGTCTAG)”, the “recombinant barcode read abundance (log10)” value was 0.141.
For “ATGTCGTCTTGGGTTCTAACCTGTTGCCT (site ATGTCGTCTAG)”, the “recombinant barcode read abundance (log10)” value was 1.13.
With “ATGTCTCCTTGGGTTCTAACCTGTTGCCT (site ATGTCTCCTAG)” the “recombinant barcode read abundance (log10)” value was 1.
In the case of “ATGTCTCCTTGGGTTCTAACCTGTTGCCT (site CTGTCTCCTAG)”, the “recombinant barcode read abundance (log10)” value was 0.0833.
In the case of “ATGTCTCCTTGGGTTCTAACCTGTTGCCT (site GTGTCTCCTAG)”, the “recombinant barcode read abundance (log10)” value was 0.0531.
In the case of “ATGTCTCCTTGGGTTCTAACCTGTTGCCT (site TTGTCTCCTAG)”, the “recombinant barcode read abundance (log10)” value was 0.228.
With “ATTAATCCTTGGGTTCTAACCTGTTGCCT (site ATTAAATCTAG)” the “recombinant barcode read abundance (log10)” value was 0.441.
With “ATTAATCCTTGGGTTCTAACCTGTTGCCT (site ATTAATCCTAG)” the “recombinant barcode read abundance (log10)” value was 0.0839.
For “ATTACTACTTGGGTTCTAACCTGTTGCCT (site AATACTACTAG)”, the “recombinant barcode read abundance (log10)” value was 0.124.
With “ATTACTACTTGGGTTCTAACCTGTTGCCT (site ACTACTACTAG)” the “recombinant barcode read abundance (log10)” value was 0.0886.
In the case of “ATTACTACTTGGGTTCTAACCTGTTGCCT (site AGTACTACTAG)”, the “recombinant barcode read abundance (log10)” value was 0.343.
With “ATTACTACTTGGGTTCTAACCTGTTGCCT (site ATTACTACTAG)” the “recombinant barcode read abundance (log10)” value was 0.411.
For “ATTAGGGCTTGGGTTCTAACCTGTTGCCG (site ATTAGGGCTCG)”, the “recombinant barcode read abundance (log10)” value was 0.413.
In the case of “ATTAGGGCTTGGGTTCTAACCTGTTGCCG (site ATTGGGGCTCT)”, the “recombinant barcode read abundance (log10)” value was 0.192.
In the case of “ATTCAAACTTGGGTTCTAACCTGTTGCCT (site ATTCAAACTAG)”, the “recombinant barcode read abundance (log10)” value was 0.788.
In the case of “ATTCAAACTTGGGTTCTAACCTGTTGCCT (site GTTCAAACTAT)”, the “recombinant barcode read abundance (log10)” value was 0.088.
With “ATTCGGGCTTGGGTTCTAACCTGTTGCGT (site ATTCGAGCTGC)” the “recombinant barcode read abundance (log10)” value was 0.0603.
With “ATTCGGGCTTGGGTTCTAACCTGTTGCGT (site ATTCGGGCTAC)” the “recombinant barcode read abundance (log10)” value was 2.07.
With “ATTGGGTCTTGGGTTCTAACCTGTTGCCT (site ATTGGATCTAG)” the “recombinant barcode read abundance (log10)” value was 0.445.
For “ATTGGGTCTTGGGTTCTAACCTGTTGCCT (site ATTGGCTCTAG)”, the “recombinant barcode read abundance (log10)” value was 0.0688.
In the case of “ATTGGGTCTTGGGTTCTAACCTGTTGCCT (site ATTGGGTCTAG)”, the “recombinant barcode read abundance (log10)” value was 0.818.
For “ATTGGGTCTTGGGTTCTAACCTGTTGCCT (site ATTGGTTCTAG)”, the “recombinant barcode read abundance (log10)” value was 0.102.
With “ATTTAACCTTGGGTTCTAACCTGTTGCGT (site ATTTAACCTAC)” the “recombinant barcode read abundance (log10)” value was 2.11.
For “ATTTAACCTTGGGTTCTAACCTGTTGCGT (site GGGGTGTCTCG)”, the “recombinant barcode read abundance (log10)” value was 0.0805.
For “ATTTCGACTTGGGTTCTAACCTGTTGCCT (site AATTCGACTAG)”, the “recombinant barcode read abundance (log10)” value was 0.0716.
In the case of “ATTTCGACTTGGGTTCTAACCTGTTGCCT (site ACTTCGACTAG)”, the “recombinant barcode read abundance (log10)” value was 0.044.
In the case of “ATTTCGACTTGGGTTCTAACCTGTTGCCT (site AGTTCGACTAG)”, the “recombinant barcode read abundance (log10)” value was 0.142.
With “ATTTCGACTTGGGTTCTAACCTGTTGCCT (site ATTTCGACTAG)” the “recombinant barcode read abundance (log10)” value was 0.16.
In the case of “CAAACATCTTGGGTTCTAACCTGTTGCCT (site CAAACAACTAG)”, the “recombinant barcode read abundance (log10)” value was 0.129.
In the case of “CAAACATCTTGGGTTCTAACCTGTTGCCT (site CAAACACCTAG)”, the “recombinant barcode read abundance (log10)” value was 0.0425.
In the case of “CAAACATCTTGGGTTCTAACCTGTTGCCT (site CAAACAGCTAG)”, the “recombinant barcode read abundance (log10)” value was 0.0169.
For “CAAACATCTTGGGTTCTAACCTGTTGCCT (site CAAACATCTAG)”, the “recombinant barcode read abundance (log10)” value was 0.162.
With “CAAACTACTTGGGTTCTAACCTGTTGCCA (site CAAACTACTTG)” the “recombinant barcode read abundance (log10)” value was 0.0171.
For “CAAACTACTTGGGTTCTAACCTGTTGCCA (site TTGCGGCCTCT)”, the “recombinant barcode read abundance (log10)” value was 0.078.
With “CAAAGAGCTTGGGTTCTAACCTGTTGCTG (site CAAAGAGCTCA)” the “recombinant barcode read abundance (log10)” value was 1.38.
With “CAAAGAGCTTGGGTTCTAACCTGTTGCTG (site GTCCAGCCTGT)” the “recombinant barcode read abundance (log10)” value was 0.0339.
In the case of “CAAAGTCCTTGGGTTCTAACCTGTTGCAT (site CAAAGTCCTAA)”, the “recombinant barcode read abundance (log10)” value was 0.191.
For “CAAAGTCCTTGGGTTCTAACCTGTTGCAT (site CAAAGTCCTAC)”, the “recombinant barcode read abundance (log10)” value was 0.0225.
In the case of “CAAAGTCCTTGGGTTCTAACCTGTTGCAT (site CAAAGTCCTAG)”, the “recombinant barcode read abundance (log10)” value was 0.59.
With “CAAAGTCCTTGGGTTCTAACCTGTTGCAT (site CAAAGTCCTAT)” the “recombinant barcode read abundance (log10)” value was 1.46.
For “CAAAGTCCTTGGGTTCTAACCTGTTGCGT (site CAAAGTCCTAA)”, the “recombinant barcode read abundance (log10)” value was 0.128.
For “CAAAGTCCTTGGGTTCTAACCTGTTGCGT (site CAAAGTCCTAC)”, the “recombinant barcode read abundance (log10)” value was 2.24.
For “CAAAGTCCTTGGGTTCTAACCTGTTGCGT (site CAAAGTCCTAG)”, the “recombinant barcode read abundance (log10)” value was 0.294.
For “CAAAGTCCTTGGGTTCTAACCTGTTGCGT (site CAAAGTCCTAT)”, the “recombinant barcode read abundance (log10)” value was 0.932.
In the case of “CAAATTACTTGGGTTCTAACCTGTTGCCT (site CAAATTACTAG)”, the “recombinant barcode read abundance (log10)” value was 0.0574.
With “CAAATTACTTGGGTTCTAACCTGTTGCCT (site CAGATGACTAG)” the “recombinant barcode read abundance (log10)” value was 0.161.
In the case of “CAACCTTCTTGGGTTCTAACCTGTTGCCT (site CAACCTTCTAG)”, the “recombinant barcode read abundance (log10)” value was 0.7.
